{"source": "patent US20170340580A1", "about": "“BIOADHESIVE PATCH” (priority 2008, published 2017)", "origin": "cited, not measured here", "conditions": "8 mg ml^−1; temperatures up to 37° C.", "data": [{"smiles": "NCC(=O)CCC(=O)O", "note": "[ALA, 5-aminolevulinic acid]", "values": [{"measurement": "ALA stability in 0.1 M borate buffer pH 5", "result": "up to 6 hours"}]}]}
